Patent US20210070748A1, “INHIBITORS OF BRUTONS TYROSINE KINASE” (Pharmacyclics LLC, priority 2015, published 2021)

These molecules were tested against T1, JAK3 (Homo sapiens, UniProt P52333) (assay: Inhibition of a panel of kinases, in vitro HotSpot kinase assay: JAK3). Settings: E compounds, Table 17; read-out: IC50 JAK3.
T1 sequence (P52333 1-1124): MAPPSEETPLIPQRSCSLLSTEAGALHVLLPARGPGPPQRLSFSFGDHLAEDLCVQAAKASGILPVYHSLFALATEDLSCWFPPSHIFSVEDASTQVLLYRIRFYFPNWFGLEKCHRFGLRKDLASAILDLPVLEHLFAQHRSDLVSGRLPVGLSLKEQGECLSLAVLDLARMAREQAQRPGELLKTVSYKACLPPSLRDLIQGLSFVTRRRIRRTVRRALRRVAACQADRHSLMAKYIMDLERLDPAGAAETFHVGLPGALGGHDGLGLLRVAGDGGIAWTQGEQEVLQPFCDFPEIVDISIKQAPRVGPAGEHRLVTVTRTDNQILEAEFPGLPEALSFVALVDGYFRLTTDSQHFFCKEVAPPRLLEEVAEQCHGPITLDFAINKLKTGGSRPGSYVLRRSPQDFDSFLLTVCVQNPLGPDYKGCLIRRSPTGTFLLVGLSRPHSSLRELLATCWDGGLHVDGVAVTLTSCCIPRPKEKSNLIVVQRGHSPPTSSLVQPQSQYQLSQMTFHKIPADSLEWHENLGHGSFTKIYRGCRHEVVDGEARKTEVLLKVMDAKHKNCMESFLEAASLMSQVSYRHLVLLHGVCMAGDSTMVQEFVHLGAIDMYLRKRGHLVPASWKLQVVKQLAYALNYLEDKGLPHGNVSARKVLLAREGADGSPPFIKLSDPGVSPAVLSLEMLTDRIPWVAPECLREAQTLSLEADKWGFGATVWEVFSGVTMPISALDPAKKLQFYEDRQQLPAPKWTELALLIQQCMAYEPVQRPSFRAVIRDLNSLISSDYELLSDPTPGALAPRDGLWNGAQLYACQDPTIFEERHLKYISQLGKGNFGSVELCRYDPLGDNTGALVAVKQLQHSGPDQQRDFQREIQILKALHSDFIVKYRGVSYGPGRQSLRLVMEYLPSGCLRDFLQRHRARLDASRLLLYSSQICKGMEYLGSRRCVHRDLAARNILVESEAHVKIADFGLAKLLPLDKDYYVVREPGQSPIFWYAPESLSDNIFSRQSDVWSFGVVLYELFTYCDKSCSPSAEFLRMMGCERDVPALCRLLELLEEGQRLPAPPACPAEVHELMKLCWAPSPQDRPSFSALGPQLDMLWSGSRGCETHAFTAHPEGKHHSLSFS
Assay type: biochemical

SMILES	IC50 [nM]
C[C@@H]1[C@H](NC(=O)c2cc(C(C)(C)C)nn2C)CCCN1c1cnc(C(N)=O)c(Nc2cnn(C)c2)n1 [Example E-146, 5-((2R,3R)-3-(3-(tert-butyl)-1-methyl-1H-pyrazole-5-carboxamido)-2-methylpiperidin-1-yl)-3-((1-methyl-1H-pyrazol-4-yl)amino)pyrazine-2-carboxamide]	1000 to 10000
C[C@@H]1[C@H](NC(=O)c2ccc(C(C)(C)O)cc2)CCCN1c1cnc(C(N)=O)c(Nc2ccc(C3(C)CCN(C4CC4)CC3)cc2)n1 [Example E-147, 3-((4-(1-cyclopropyl-4-methylpiperidin-4-yl)phenyl)amino)-5-((2R,3R)-3-(4-(2-hydroxypropan-2-yl)benzamido)-2-methylpiperidin-1-yl)pyrazine-2-carboxamide]	100 to 1000
C[C@@H]1[C@H](NC(=O)c2ccc(C3CC3)cc2)CCCN1c1cnc(C(N)=O)c(Nc2ccc(N3CCN(C)C[C@@H]3C)cc2)n1 [Example E-148, 5-((2R,3R)-3-(4-cyclopropylbenzamido)-2-methylpiperidin-1-yl)-3-((4-((S)-2,4-dimethylpiperazin-1-yl)phenyl)amino)pyrazine-2-carboxamide]	100 to 1000
C[C@@H]1[C@H](NC(=O)c2noc(C(C)(C)C)n2)CCCN1c1cnc(C(N)=O)c(Nc2cnn(C)c2)n1 [Example E-149, 5-(tert-butyl)-N-((2R,3R)-1-(5-carbamoyl-6-((1-methyl-1H-pyrazol-4-yl)amino)pyrazin-2-yl)-2-methylpiperidin-3-yl)-1,2,4-oxadiazole-3-carboxamide]	1000 to 10000
Cn1cc(Nc2nc(N3CCCC(C)(NC(=O)c4ccc(C5CC5)cc4)C3)cnc2C(N)=O)cn1 (stereo not shown) [Example E-150, 5-(3-(4-cyclopropylbenzamido)-3-methylpiperidin-1-yl)-3-((1-methyl-1H-pyrazol-4-yl)amino)pyrazine-2-carboxamide]	1000 to 10000
CCC(O)(CC)c1ccc(C(=O)N[C@@H]2CCCN(c3cnc(C(N)=O)c(Nc4cnn(C)c4)n3)[C@@H]2C)cc1 [Example E-151, 5-((2R,3R)-3-(4-(3-hydroxypentan-3-yl)benzamido)-2-methylpiperidin-1-yl)-3-((1-methyl-1H-pyrazol-4-yl)amino)pyrazine-2-carboxamide]	100 to 1000
Cc1cc(C(=O)N[C@@H]2CCCN(c3cnc(C(N)=O)c(Nc4cnn(C)c4)n3)[C@@H]2C)ccc1C(C)(C)O [Example E-152, 5-((2R,3R)-3-(4-(2-hydroxypropan-2-yl)-3-methylbenzamido)-2-methylpiperidin-1-yl)-3-((1-methyl-1H-pyrazol-4-yl)amino)pyrazine-2-carboxamide]	100 to 1000
C[C@@H]1[C@H](NC(=O)c2ccc3c(c2)C(C)(C)OC3)CCCN1c1cnc(C(N)=O)c(Nc2cnn(C)c2)n1 [Example E-153, 5-((2R,3R)-3-(3,3-dimethyl-1,3-dihydroisobenzofuran-5-carboxamido)-2-methylpiperidin-1-yl)-3-((1-methyl-1H-pyrazol-4-yl)amino)pyrazine-2-carboxamide]	1000 to 10000
C[C@@H]1[C@H](NC(=O)c2ccc(-c3ncco3)cc2)CCCN1c1cnc(C(N)=O)c(Nc2cnn(C)c2)n1 [Example E-154, 3-((1-methyl-1H-pyrazol-4-yl)amino)-5-((2R,3R)-2-methyl-3-(4-(oxazol-2-yl)benzamido)piperidin-1-yl)pyrazine-2-carboxamide]	100 to 1000
Cc1nc(-c2ccc(C(=O)N[C@@H]3CCCN(c4cnc(C(N)=O)c(Nc5cnn(C)c5)n4)[C@@H]3C)cc2)cs1 [Example E-155, 3-((1-methyl-1H-pyrazol-4-yl)amino)-5-((2R,3R)-2-methyl-3-(4-(2-methylthiazol-4-yl)benzamido)piperidin-1-yl)pyrazine-2-carboxamide]	100 to 1000
